Data on four substances can be found in US20080070986A1, “ALKYLETHER CITRATES FOR SELECTIVELY CLEANING THE SKIN” (priority 2006, published 2008).

Common to all, as to assay: Minimum inhibiting concentration (MIC), dilution series to DIN 58940 and DIN 58944
Common to all, as to assay type: cell-based

For test [1], the system named is Staphylococcus epidermidis. More on the design: Minimum inhibiting concentration: unit not given here. To be noted: for Minimum inhibiting concentration: test solution 10% active substance. On the procedure:
(§1) The scale of an antimicrobial effect of surfactants can be established in a biological test system in which the minimum inhibiting concentration (MIC) is comparatively determined under laboratory conditions. In a dilution series of the test substance, the MIC is just that concentration at which no further growth is possible. The milder a surfactant, the higher the MIC value. The minimum inhibiting concentration of various surfactants was determined for three microorganisms occurring on the skin (Table 1). The surfactants are referred to by their names under the INCI nomenclature. [table] [table]

Test [2] has as its system Propionibacterium acnes. More on the design: Minimum inhibiting concentration: unit not given here. The conditions noted are these: for Minimum inhibiting concentration: test solution 10% active substance. On the procedure: as §1
The test system of test [3] is Malassezia furfur. Further details: unit not given here. To be noted: test solution 10% active substance. On the procedure:
as §1

Where [4] appears, read: in words, versus the other surfactants of Table 1.

As for Cocamidopropyl betaine, the Minimum inhibiting concentration in test [1] (pH 6.5, single surfactants) was 0.1; in test [2] (pH 6.5, single surfactants), 0.05; in test [3] (pH 6.5, single surfactants), over 0.5.
With Laureth-7 Citrate, the “Inhibition compared with the other surfactants” value in test [1] (setting [4]) and in test [2] (setting [4]) was “only inhibited at considerably higher concentrations” throughout. In addition, the Minimum inhibiting concentration in test [1] (pH 6.5, single surfactants) is on record as over 0.5; in test [1] (surfactant combinations), “≧1”; in test [2] (pH 6.5, single surfactants), over 0.5; in test [2] (surfactant combinations), “≧1”; in test [3] (pH 6.5, single surfactants), over 0.5; in test [3] (surfactant combinations), “≧1”.
Take Lauryl Glucoside: the Minimum inhibiting concentration in test [1] (pH 6.5, single surfactants) is 0.5; in test [2] (pH 6.5, single surfactants), 0.05; in test [3] (pH 6.5, single surfactants) it was over 0.5.
Turning to Sodium Laureth Sulfate, the Minimum inhibiting concentration in test [1] (pH 6.5, single surfactants) is recorded as 0.5; in test [1] (surfactant combinations) it was 0.5; in test [2] (pH 6.5, single surfactants), 0.05; in test [2] (surfactant combinations), 0.05; in test [3] (pH 6.5, single surfactants) it was over 0.5; in test [3] (surfactant combinations), “≧1”.
